# Patent US4036979A, “Compositions containing 4,5,6,7-tetrahydrobenz[b]thien-4-yl-ureas or derivatives and methods of enhancing growth rate” (American Cyanamid Company, priority 1976, dated 1977)
# Values joined by “and” are separate entries in the source; they are usually repeats but may differ in a detail not shown here. Identical values can stand only once.
# Experiments:
# [1] = Mouse Growth Regulant Tests (12-day weight gain over controls, compound in diet); type: in vivo, CFI female mice; details: Mus musculus, feed or water, 288 h, Table VI
# [2] = Growth enhancement and feed efficiency in sheep given an implant containing test compound (six weeks); type: in vivo, sheep (Wether lambs); details: for Average 6-Week Feed/Gain per Pen, AV. / Average 6-Week Weight Gain (kg.)/Lamb, AV.: average of 6 replications; for Average 6-Week Feed/Gain per Pen / Average 6-Week Weight Gain (kg.)/Lamb: replications 1 to 6
# Description: To determine the effect of a 4,5,6,7-tetrahydrobenzo[b]thien-4-ylurea compound on sheep, Wether lambs are randomly allotted to pens in groups of six. The sheep are weighed and permitted food and water ad libitum. The feed is weighed daily, and uneaten feed from the previous day is collected and weighed. Test lambs receive the same unmedicated diet as control animals, but test animals receive one or more subcutaneous implants containing test compound at the base of the ear. The formulation of the implant used is given below. At the end of the six-week treatment period, the lambs are again weighed, and total feed consumed is calculated.
# In these tests, six replicates of six lambs each per treatment are used and each animal receives from about 11 mg. to 105 mg. of test compound.
# [3] = Growth enhancement and feed efficiency improvement in sheep fed levels of test compounds (six weeks); type: in vivo, sheep (Wether lambs); details: for Average Daily Gain (kg)/Lamb, av. / Six-Week Feed/Gain, av.: average of 5 replications; for Average Daily Gain (kg)/Lamb / Six-Week Feed/Gain: replications 1 to 5
# Description: To determine the effect of feeding experimental compounds on sheep performance, Wether lambs are randomly allotted to pens in groups of six. The sheep are weighed and permitted feed and water ad libitum. The feed is weighed daily, and uneaten feed from the previous day is collected and weighed. Test lambs receive the same diet as control animals but with the addition of experimental compound at a concentration of either 15 or 60 ppm. At the end of the six-week treatment period, the lambs are again weighed, and total feed is calculated.
# In these tests, five replicates of six lambs each per treatment are used.
# [4] = Chick tests: growth promotion and feed/gain, 13 days, compound in basal diet; type: in vivo, chicks; details: for Average 13-day Chick/Gain (g), AV. / Average 13-day Feed/Gain, AV.: average of 4 experiments; for Average 13-day Chick/Gain / Average 13-day Feed/Gain: experiments 1928, 1929, 1930, 1931; for Percent Improvement (13-day chick gain) / Percent Improvement (13-day feed/gain): vs control
# Protocol: The following tests were conducted to evaluate the ability of 4,5,6,7-tetrahydrobenzo[b]thien-4-ylurea to promote growth in chicks.
# In these tests day-old chicks are placed in heated cages and given feed and water ad libitum. In each test there are 5 male and 5 female chicks per cage and three cages per treatment are used. Treatments consist of a basal diet plus 1,3 or 9 ppm. of test compound. The chicks are weighed at the beginning and end of the experiment. Feed consumption is determined for the experimental period which is 13 days beginning when the chicks are one day old.
compound,measurement,setting,value
"NC(=O)NC1CCCc2sccc21 (stereo not drawn) [4,5,6,7-tetrahydrobenzo[b]thien-4-ylurea]",change in vivo at 50 ppm,[1]; 50 ppm in diet,50.1%
same,change in vivo at 200 ppm,[1]; 200 ppm in diet,134%
same,change in vivo at 400 ppm,[1]; 400 ppm in diet,120%
same,improvement of feed utilization over untreated controls,"[2]; 11 mg. or 99 mg. implanted, six weeks",about 5%
same,increase in weight gain over untreated controls,"[2]; 11 mg. or 99 mg. implanted, six weeks after implantation",~10%
same,"Average 6-Week Feed/Gain per Pen, AV.",[2]; 1 drug implant,7.57
same,"Average 6-Week Weight Gain (kg.)/Lamb, AV.",[2]; 1 drug implant,8.86 kg
same,Average 6-Week Feed/Gain per Pen,[2]; 1 drug implant,6.63 and 6.58 and 7.41 and 8.21 and 8.05 and 8.49
same,Average 6-Week Weight Gain (kg.)/Lamb,[2]; 1 drug implant,11.25 kg and 9.32 kg and 9.20 kg and 8.63 kg and 8.05 kg and 6.68 kg
same,"Average 6-Week Feed/Gain per Pen, AV.",[2]; 9 drug implants,7.49
same,"Average 6-Week Weight Gain (kg.)/Lamb, AV.",[2]; 9 drug implants,8.69 kg
same,Average 6-Week Feed/Gain per Pen,[2]; 9 drug implants,6.51 and 6.75 and 7.80 and 8.38 and 7.56 and 7.97
same,Average 6-Week Weight Gain (kg.)/Lamb,[2]; 9 drug implants,10.83 kg and 9.60 kg and 8.75 kg and 7.20 kg and 8.53 kg
same,"Average Daily Gain (kg)/Lamb, av.",[3]; 15 ppm in feed,0.186 kg
same,"Six-Week Feed/Gain, av.",[3]; 15 ppm in feed,6.611
same,Average Daily Gain (kg)/Lamb,[3]; 15 ppm in feed,0.190 kg and 0.187 kg and 0.186 kg and 0.174 kg and 0.195 kg
same,Six-Week Feed/Gain,[3]; 15 ppm in feed,6.777 and 6.174 and 6.158 and 7.626 and 6.319
same,"Average Daily Gain (kg)/Lamb, av.",[3]; 60 ppm in feed,0.208 kg
same,"Six-Week Feed/Gain, av.",[3]; 60 ppm in feed,6.148
same,Average Daily Gain (kg)/Lamb,[3]; 60 ppm in feed,0.211 kg and 0.250 kg and 0.200 kg and 0.193 kg and 0.189 kg
same,Six-Week Feed/Gain,[3]; 60 ppm in feed,6.250 and 5.539 and 6.040 and 6.507 and 6.403
same,"Average 13-day Chick/Gain (g), AV.",[4]; 1 ppm,189 g
same,"Average 13-day Feed/Gain, AV.",[4]; 1 ppm,1.46
same,Average 13-day Chick/Gain,[4]; 1 ppm,181 g and 193 g and 182 g and 200 g
same,Average 13-day Feed/Gain,[4]; 1 ppm,1.48 and 1.45 and 1.49 and 1.44
same,Percent Improvement (13-day chick gain),[4]; 1 ppm,3.3%
same,Percent Improvement (13-day feed/gain),[4]; 1 ppm,2.7%
same,"Average 13-day Chick/Gain (g), AV.",[4]; 3 ppm,195 g
same,"Average 13-day Feed/Gain, AV.",[4]; 3 ppm,1.43
same,Average 13-day Chick/Gain,[4]; 3 ppm,199 g and 186 g and 197 g and 198 g
same,Average 13-day Feed/Gain,[4]; 3 ppm,1.47 and 1.40 and 1.44
same,Percent Improvement (13-day chick gain),[4]; 3 ppm,6.6%
same,Percent Improvement (13-day feed/gain),[4]; 3 ppm,4.7%
same,"Average 13-day Chick/Gain (g), AV.",[4]; 9 ppm,193 g
same,"Average 13-day Feed/Gain, AV.",[4]; 9 ppm,1.44
same,Average 13-day Chick/Gain,[4]; 9 ppm,190 g and 198 g and 191 g
same,Average 13-day Feed/Gain,[4]; 9 ppm,1.45 and 1.46 and 1.40
same,Percent Improvement (13-day chick gain),[4]; 9 ppm,5.5%
same,Percent Improvement (13-day feed/gain),[4]; 9 ppm,4.0%
